# Results published in US20230346777A1, “USE OF SGC ACTIVATORS FOR THE TREATMENT OF OPHTHALMOLOGIC DISEASES” (Bayer Aktiengesellschaft, priority 2020, published 2023).
# Structures can show the parent of a compound that is named as a salt.
# Target: T1, recombinant guanylate cyclase reporter cell line (Rattus norvegicus, UniProt P20595)
# T1 construct: expressed in transfected cells; CHO by own knowledge of the cited Wunder et al. 2005
# T1 sequence (P20595 1-619): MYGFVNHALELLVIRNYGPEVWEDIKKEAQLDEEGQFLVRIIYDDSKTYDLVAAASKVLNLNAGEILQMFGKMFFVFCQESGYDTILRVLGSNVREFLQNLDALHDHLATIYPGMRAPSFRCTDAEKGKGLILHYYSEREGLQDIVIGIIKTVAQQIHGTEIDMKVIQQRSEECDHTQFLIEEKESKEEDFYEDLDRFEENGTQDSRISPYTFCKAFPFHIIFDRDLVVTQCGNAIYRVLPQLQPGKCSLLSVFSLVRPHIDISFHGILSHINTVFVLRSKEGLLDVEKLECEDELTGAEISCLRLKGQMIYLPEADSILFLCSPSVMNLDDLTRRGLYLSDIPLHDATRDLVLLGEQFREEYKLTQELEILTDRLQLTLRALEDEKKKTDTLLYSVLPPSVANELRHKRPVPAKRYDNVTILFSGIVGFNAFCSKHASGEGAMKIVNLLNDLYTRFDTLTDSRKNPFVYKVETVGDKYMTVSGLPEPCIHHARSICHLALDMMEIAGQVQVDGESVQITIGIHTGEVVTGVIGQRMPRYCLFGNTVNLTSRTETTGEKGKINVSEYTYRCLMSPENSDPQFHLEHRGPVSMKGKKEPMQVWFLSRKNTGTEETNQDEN
# T1 sequence (P19686 1-690 partner): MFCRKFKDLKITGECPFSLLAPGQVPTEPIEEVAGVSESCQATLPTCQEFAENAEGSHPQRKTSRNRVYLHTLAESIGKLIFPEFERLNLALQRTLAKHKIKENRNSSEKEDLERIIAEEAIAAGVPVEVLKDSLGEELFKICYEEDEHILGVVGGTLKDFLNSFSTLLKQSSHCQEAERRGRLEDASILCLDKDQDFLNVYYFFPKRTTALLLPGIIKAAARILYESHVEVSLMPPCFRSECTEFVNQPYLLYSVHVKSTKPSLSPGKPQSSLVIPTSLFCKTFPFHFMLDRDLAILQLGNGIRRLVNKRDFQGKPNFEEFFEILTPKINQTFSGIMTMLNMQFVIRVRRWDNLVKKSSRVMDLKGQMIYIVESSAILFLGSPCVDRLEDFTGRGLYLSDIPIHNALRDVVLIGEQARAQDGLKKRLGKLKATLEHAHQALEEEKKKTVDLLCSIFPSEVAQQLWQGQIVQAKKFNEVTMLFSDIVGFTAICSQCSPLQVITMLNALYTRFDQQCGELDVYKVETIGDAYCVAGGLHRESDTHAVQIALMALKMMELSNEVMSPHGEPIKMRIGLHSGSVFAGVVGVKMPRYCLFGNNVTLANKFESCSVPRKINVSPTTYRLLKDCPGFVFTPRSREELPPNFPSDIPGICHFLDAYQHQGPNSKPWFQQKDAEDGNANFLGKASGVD
# Test: Effect on a recombinant guanylate cyclase reporter cell line
# Format: cell-based
# Method: B-1. Effect on a Recombinant Guanylate Cyclase Reporter Cell Line
# The cellular activity of the compounds according to the invention was determined using a recombinant guanylate cyclase reporter cell line, as described in F. Wunder et al., Anal. Biochem. 339, 104-112 (2005).
smiles,measurement,setting,value
"CC(C)CN1CCN(c2ccc(-c3ccc(Cl)cc3N3CCC[C@@H](n4ncc(C(=O)O)c4C(F)F)C3)cc2)CC1 [Example 3, 1-{1-[4-Chloro-4′-(4-isobutylpiperazin-1-yl)[biphenyl]-2-yl]piperidin-3-yl}-5-(difluoromethyl)-1H-pyrazole-4-carboxylic acid hydrochloride]",EC50,,2.7 nM
same,MEC (minimum effective concentration),hydrochloride,0.6 nM
